This passage reports Activity and IC50 results from ChEMBL document CHEMBL5360581, “Discovery of a novel dual functional phenylpyrazole-styryl hybrid that induces apoptotic and autophagic cell death in bladder cancer cells” (Eur J Med Chem, 2023).

In series [1] the test system is EJ-28. As to the kind of experiment: Induction of ROS generation in human EJ-28 cells at 1.25 to 10 uM incubated for 48 hrs by DCFDA staining based flow cytometry analysis. It is filed as functional, cell-based. The note with it: dose 1.25-10 µM. (In flow cytometry, cells or beads pass a laser one at a time.)
Series [2] concerns EJ-28. As to the kind of experiment: Induction of apoptosis in human EJ-28 cells assessed as upregulation of PARP expression incubated for 48 to 72 hrs by Western blotting analysis. It is filed as functional, cell-based. The note with it: time 48-72 hrs. (Immunoblotting shows a protein as a band on a membrane.)
Series [3] in a line: Toxicity in Zebrafish embryo assessed as lack of pigmentation at 12.5 uM administered for 4 hrs post fertilization and measured after 3 days post fertilization. Set-up: species or system Danio rerio. The note with it: in vivo, 72 h, time 3 day.
The subject of series [4] is EJ-28. As to the kind of experiment: Induction of autophagy in human EJ-28 cells assessed as upregulation of Atg5-Atg12 expression at 5 to 12.5 uM incubated for 24 to 72 hrs by Western blot analysis. It is filed as functional, cell-based. The note with it: dose 5-12.5 µM, time 24-72 hrs.
In series [5] the test system is EJ-28. As to the kind of experiment: Induction of apoptosis in human EJ-28 cells assessed as upregulation of cleaved caspases-8 expression by Western blotting analysis. It is filed as functional, cell-based. The note with it: time 24-72 hrs.
The test system of series [6] is EJ-28. As to the kind of experiment: Induction of morphological changes in human EJ-28 cells assessed as cell rounding at 7.5 uM incubated for 24 to 72 hrs by microscopic analysis. It is filed as functional, cell-based. The conditions noted are these: time 24-72 hrs.
For series [7], the system named is EJ-28. As to the kind of experiment: Induction of cell cycle arrest in human EJ-28 cells assessed as accumulation of cells at G2/M phase at 2.5 uM incubated for 48 hrs by propidium iodide staining based flow cytometry (reference value: 20%). It is filed as functional.
In series [8] the test system is EJ-28. As to the kind of experiment: Induction of autophagy in human EJ-28 cells assessed as upregulation of LC3B-I expression at 5 to 12.5 uM incubated for 24 to 72 hrs by Western blot analysis. It is filed as functional, cell-based. The note with it: dose 5-12.5 µM, time 24-72 hrs.
Series [9] concerns EJ-28. As to the kind of experiment: Induction of cell cycle arrest in human EJ-28 cells assessed as accumulation of cells at sub-G0/G1 phase at 10 uM incubated for 48 hrs by propidium iodide staining based flow cytometry (reference value: 48%). It is filed as functional.
The subject of series [10] is EJ-28. As to the kind of experiment: Induction of apoptosis in human EJ-28 cells assessed as upregulation of PUMA expression incubated for 48 hrs by Western blotting analysis. The class given is functional, cell-based.
Series [11] is described as follows: Cytotoxicity against human NHDF cells assessed inhibition of cell growth incubated for 72 hrs by MTT assay. It is filed as toxicity, cell-based. Background: Tetrazolium assays rely on reduction of a dye to a coloured formazan, in cell work by metabolically active cells.
Series [12] concerns EJ-28. As to the kind of experiment: Anticancer activity against human EJ-28 cells cultured as 3D spheroids at 2.5 to 20 uM measured upto 5 days by PI/Hoechst 33342 staining based fluorescence microscopic analysis. The class given is functional, cell-based. The conditions noted are these: dose 2.5-20 µM, time <= 5.0 day.

Calls of active or inactive are those of the source. No cut-off for these calls is given here.

Consider `O=[N+]([O-])c1cccc(/C=C/c2cc(-c3cc(Cl)ccc3O)n(-c3ccccc3)n2)c1`, for which the result with EJ-28 [1] and in the series on EJ-28 [2] was inactive. Besides, the Activity entry is “Non-Toxic” in series [3], “Dose-Dependent Effect” in the series on EJ-28 [5], 15% in the series with EJ-28 [7] and 58% in the series with EJ-28 [9]. The outcome in the series with EJ-28 [4], in the series with EJ-28 [6], in the series on EJ-28 [8], with EJ-28 [10] and in the series on EJ-28 [12] was Active. Also, in series [11], half-maximal inhibition (IC50 at 72 h) was put at 39.7 µM.

Usually IC50 stands for the concentration needed to halve the response being measured.
